For the assay, the system named is angiotensin II-induced pressor responses. In words: Test C: antagonism of angiotensin II-induced pressor responses in rats. Conditions: iv, rat, i.v. administration. The format is in vivo. The source says:
The antagonism of one or more of the physiological actions of AII and, in particular, the antagonism of the interaction of AII with the receptors which mediate its effects on a target tissue, may be assessed using one or more of the following, routine laboratory procedures: Test C: This in vivo test involves using terminally-anaesthetised or conscious rats in which an arterial catheter has been implanted under anaesthesia for the measurement of changes in blood pressure. The AII antagonistic effects of the test compound following oral or parenteral administration, are assessed against angiotensin II-induced pressor responses. To ensure that the effect is specific, the effect of the test compound on vasopressin-induced pressor responses may also be determined in the same preparation.

Consider `Cc1cc(OCc2ccc(-c3ccccc3-c3nnn[nH]3)cc2)c2ccccc2n1.Cl` [Example 7, 2-methyl-4-[(2'-(1H-tetrazol-5-yl)biphenyl-4-yl)methoxy]quinoline hydrochloride], for which the ED50 is 0.5 mg/kg.

The ED50 is the midpoint of the dose-response relation. A lower ED50 goes with an effect at a small dose.

Values taken from patent publication US5444071A, “Quinoline derivatives and use thereof as angiotensin II antagonists” (Imperial Chemical Industries PLC, priority 1989, dated 1995).
